Results published in PMC3718762, “Differential Disruption of EWS-FLI1 Binding by DNA-Binding Agents” (PLoS ONE, 2013).
Starred links: 1 amine or outer side, 2 acyl side, 3 side chain; linkers in the order of their positions; H or OH if unused. Positions of bridges follow the written chain, without caps; N, C: chain ends. Non-standard residues stand in square brackets, D forms with d. Residues, ends and D or L forms follow the SMILES beside them. Chains are numbered I, II in the order given. Actinocin(9to1) = Cc1c2oc3c(C)ccc(C(=O)[*:1])c3nc-2c(C(=O)[*:2])c(N)c1=O; NMeV = CN[C@H](C(=O)O)C(C)C; Sar = CNCC(=O)O

Experiments:
[1] = biological target: T1, EWS-FLI1 binding to the NR0B1 promoter (Homo sapiens, UniProt Q01543+Q01844); assay: ChIP-qPCR, EWS-FLI1 binding to NR0B1 promoter in A673 cells; assay type: cell-based; conditions: 5 nM, 4 hrs, anti-FLI1 ChIP, DMSO 31-fold, p = 0.0018
T1 construct: EWS (EWSR1, Q01844) N-terminal portion, fusion partner; endogenous in cells; host or cells: A673 Ewing sarcoma cells
T1 sequence (Q01844+Q01543 with tags, fused parts or gaps): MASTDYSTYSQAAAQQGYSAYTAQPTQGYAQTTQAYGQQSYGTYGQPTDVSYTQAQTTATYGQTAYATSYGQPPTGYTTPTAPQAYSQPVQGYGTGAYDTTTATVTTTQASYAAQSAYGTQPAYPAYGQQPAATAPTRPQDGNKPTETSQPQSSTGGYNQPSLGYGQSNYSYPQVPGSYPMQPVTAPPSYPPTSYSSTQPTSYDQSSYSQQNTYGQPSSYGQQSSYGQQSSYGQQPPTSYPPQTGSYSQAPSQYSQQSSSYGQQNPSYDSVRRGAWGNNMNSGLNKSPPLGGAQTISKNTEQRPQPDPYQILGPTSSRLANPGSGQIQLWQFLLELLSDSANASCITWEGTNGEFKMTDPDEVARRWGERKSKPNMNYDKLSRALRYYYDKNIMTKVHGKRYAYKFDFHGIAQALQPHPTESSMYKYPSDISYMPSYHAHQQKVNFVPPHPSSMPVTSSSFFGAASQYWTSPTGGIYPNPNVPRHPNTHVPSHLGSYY
Experimental: (§1) ChIP-qPCR was performed as previously described. Briefly, cells were treated with compounds for 4 hrs, then crosslinked, lysed, and chromatin fragmented. After ChIP, quantitative PCR was used to quantify NR0B1, p53, and RPS26 loci, and fold enrichment was determined by the formula: Fold enrichment = 2χ(Input Ct-ChIP Ct)/2χ(Input Ct-IgG Ct).
(§2) We used chromatin immunoprecipitation coupled with quantitative PCR (ChIP-qPCR) to assess effects of actinomycin D on EWS-FLI1 binding to chromatin in cells. A673 cells were treated with either actinomycin D at 5 nM, or vehicle. After crosslinking, chromatin was sheared and EWS-FLI1-DNA complexes were immunoprecipitated using an anti-FLI1 antibody. We used primers flanking the EWS-FLI1-binding site in the promoter of the NR0B1 gene to quantify binding of EWS-FLI1. We used RPS26 and TP53 as control loci since neither are bound by EWS-FLI [15] and we have shown that RPS26 and TP53 transcript levels were unaffected by actinomycin D treatment (Figure 2F). Without actinomycin D treatment, binding of EWS-FLI1 to the NR0B1 promoter was enriched 31-fold by comparison to IgG controls (Figure 4A, DMSO). Treatment of cells with actinomycin D reduced binding of EWS-FLI1 to the NR0B1 promoter to 4-fold (p = 0.0018; Figure 4A).

NR0B1 promoter = assay: NR0B1-Luc firefly luciferase reporter assay in A673 cells; assay type: cell-based, human; conditions: Homo sapiens, A673, 16 h, read-out: IC50 for inhibition of NR0B1 activity
Excerpt: The NR0B1 promoter was amplified from human genomic DNA using the 5′ primer- […] and 3′ primer - […]. NR0B1 promoter amplicon was cloned into the NheI and HindIII sites in the pGL.3Basic vector. The 5′ primer-[…] was used to amplify a truncated NR0B1 promoter in which the entire EWS-FLI1 binding region (GGAA repeats) was deleted to construct pGL.3b-NR0B1del. All constructs were confirmed by sequencing. All other plasmids were previously described.
Ewing sarcoma A673 cells at 50% confluence in 100 mm dishes were transfected with both 5.8 µg of pGL.3b-NR0B1 and 0.2 µg of pGL.3b-Ubc-RL reporter plasmids as above. Eight hours post-transfection, cells were trypsinized and 600 ul (2×10^5) of cells were added to each well of 24 well plates. 5 µl of different concentration of compounds or DMSO control were added to each well. Each treatment was performed in triplicate. Cells were incubated for 16 hours, then cells were lysed in 100 µl of lysis buffer and 10 µl of cell lysate was used for the dual luciferase assay. Renilla luciferase activity was used as an internal control for normalization of nonspecific transcriptional inhibition or cytotoxic effects. Experiments were repeated three times. IC50 values were calculated using Prism (Graphpad).
To determine the effect of compounds on EWS-FLI1 activity in cells, we used a reporter assay comprised of the NR0B1 promoter, a prototypical EWS-FLI1-regulated gene, driving expression of firefly luciferase. Renilla luciferase driven by the Ubiquitin C promoter (UbC-RL) was used as an internal control. Confirming prior studies, the NR0B1 promoter was verified to be highly responsive to EWS-FLI1, whereas the UbC promoter activity was not subject to regulation by EWS-FLI1 (Figure S1).

RPS26 and TP53 loci = assay: ChIP-qPCR, control loci in A673 cells; assay type: cell-based; conditions: 5 nM, 4 hrs, anti-FLI1 ChIP
Experimental: as §1, §2

[2] = system: RPS26 and TP53 transcripts; assay: Quantitative RT-PCR of control transcripts in A673 cells; assay type: cell-based; conditions: actinomycin D treatment (Figure 2F)
Experimental: Duplicate wells of A673 cells were treated overnight with different concentration of actinomycin D. RNA was extracted with absolutely mRNA purification kit from Stratagene. 0.5 µg total RNA was mixed with 1 µl iScript Reverse Transcriptase, 10 µl of 2× RT-PCR reaction mix for probes from Bio-Rad, 1 µl of NR0B1, RPS26 and TP53 probes from Life Technologies and H2O up to 20 µl total volume. RT-PCR was performed in an iCycler iQ with 50°C for 10 minutes for one cycle; 95°C, 15 seconds, 60°C 40 seconds for 40 cycles. Each RNA sample was technically duplicated, and relative abundance was calculated by the delta Ct method.

p53 = biological target: T2, p53 (Homo sapiens, UniProt P04637); assay: AlphaScreen proximity assay (counterscreen), binding of recombinant p53 to cognate DNA oligo
T2 construct: made in house; host or cells: bacteria (pGex-6P-1-p53); plasmid was a gift from Dr. Guangchao Sui
Excerpt: An AlphaScreen assay for binding of recombinant EWS-FLI1 to DNA was previously described. Briefly, recombinant EWS-FLI1 and p53 were synthesized in bacteria transformed with pGex-6P-1-EWS-FLI1 or pGex-6P-1-p53, and bound to AlphaScreen acceptor beads. A biotinylated oligonucleotide containing two copies of the EWS-FLI1 binding motif or p53 binding motifs was bound to AlphaScreen donor beads. For EWS-FLI1, the oligo sequence was: […]. The p53 binding oligo sequence was: […]. This assay was used to screen 5,200 compounds, as previously described. IC50 values were calculated with the GraphPad Prism software package.
We developed a homogeneous AlphaScreen assay to assess the binding of recombinant EWS-FLI1 to DNA [18]. A parallel assay assessing binding of p53 to DNA was used as a counterscreen. Briefly, in these proximity assays, recombinant GST-EWS-FLI1 or GST-p53 was bound to glutathione-conjugated AlphaScreen acceptor beads, and a synthetic biotinylated oligonucleotide (oligo) containing tandem EWS-FLI1 or p53 binding sites was bound to streptavidin-conjugated AlphaScreen donor beads. Binding of GST-EWS-FLI1 or GST-p53 to the cognate oligo allows singlet oxygen transfer from donor to acceptor beads when excited at 680 nm, with resulting light emission between 520–620 nm.

T2 sequence (P04637 whole entry, species assumed): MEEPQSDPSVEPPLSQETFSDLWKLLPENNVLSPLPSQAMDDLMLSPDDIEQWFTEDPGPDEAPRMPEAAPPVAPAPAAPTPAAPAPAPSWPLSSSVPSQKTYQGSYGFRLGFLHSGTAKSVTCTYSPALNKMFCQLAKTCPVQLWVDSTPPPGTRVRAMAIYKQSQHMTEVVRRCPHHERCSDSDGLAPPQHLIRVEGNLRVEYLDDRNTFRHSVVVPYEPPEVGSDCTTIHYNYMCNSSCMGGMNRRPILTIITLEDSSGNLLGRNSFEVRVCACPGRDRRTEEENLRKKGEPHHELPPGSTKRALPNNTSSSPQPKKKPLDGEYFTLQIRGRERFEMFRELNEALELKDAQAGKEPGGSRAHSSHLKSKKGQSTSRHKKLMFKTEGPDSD

With Cc1c2oc3c(C)ccc(C(=O)N[C@@H]4C(=O)N[C@H](C(C)C)C(=O)N5CCC[C@H]5C(=O)N(C)CC(=O)N(C)[C@@H](C(C)C)C(=O)O[C@@H]4C)c3nc-2c(C(=O)N[C@@H]2C(=O)N[C@H](C(C)C)C(=O)N3CCC[C@H]3C(=O)N(C)CC(=O)N(C)[C@@H](C(C)C)C(=O)O[C@@H]2C)c(N)c1=O [Actinomycin D] (I: T[dV]P[Sar][NMeV] / II: T[dV]P[Sar][NMeV]; ester I:1-I:C, II:1-II:C; linker I:N-II:N via Actinocin(9to1)) the “Binding of EWS-FLI1 to the NR0B1 promoter, fold enrichment over IgG control” value [1] was 4 fold, the IC50 (NR0B1 promoter) was 2.8 nM and the “Effect on RPS26 or TP53 loci in ChIP” value (RPS26 and TP53 loci) was “did not affect”. For the same compound, the “RPS26 and TP53 transcript levels” value [2] was “unaffected” and the IC50 (p53) was > 10000 nM.
